{PEG30K} = 30 kDa polyethylene glycol, attached through the amine; {3T} = T cap; {PEG20K} = 20 kDa polyethylene glycol; [invdT] = inverted (3'-3') thymidine; {NH2} = amine group; m = 2'-O-methyl; r = 2'-OH (RNA); f = 2'-fluoro
Key:
TGFβ2 [1] = molecular target: T1, TGFβ2 (Homo sapiens, UniProt P61812); assay: Dot blot binding of doped reselection aptamers to TGFβ2; design: For bio-chemical characterization of these aptamers, two forms of mature TGFβ2 were generated, native and N-terminal his-tagged versions, in E. coli; settings: CW128_103
T1 sequence (P61812 303-414 limits assumed): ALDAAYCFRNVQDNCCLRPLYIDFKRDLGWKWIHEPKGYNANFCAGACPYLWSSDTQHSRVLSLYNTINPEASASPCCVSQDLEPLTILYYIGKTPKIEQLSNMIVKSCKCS
Method: TGFβ2 was serially diluted in DPBS containing 0.2 mg/ml BSA and 0.2 mg/ml tRNA. ^32P-labeled RNA (<20 pM) were incubated with TGFβ2 at room temperature for 30 min. Samples were pipetted with a multichannel pippetor onto a multiwell manifold holding layers of pre-wetted 0.45 micron nitrocellulose, hybond membrane, 3MM filter paper (the order is from top to bottom), aspirated, and washed 3× with DPBS (containing tRNA). All three filters were air dried, exposed to phosphorimager plate, analyzed by ImageQuant.

PDGF AB and BB = assay: PDGF binding (Kd); design: species or system human; settings: read-out: Kd, PDGF AB and BB
PDGF AB and BB, sequence (P01127 82-190 limits assumed): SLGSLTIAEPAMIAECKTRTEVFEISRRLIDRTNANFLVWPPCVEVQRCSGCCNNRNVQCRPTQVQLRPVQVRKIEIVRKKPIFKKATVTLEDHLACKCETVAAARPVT

human TGFβ2 = molecular target: T2, human TGFβ2 (Homo sapiens, UniProt P61812); assay: MLEC proliferation assay (reversal of TGFβ2-mediated inhibition, BrdU); type: cell-based
T2 construct: two forms of mature TGFβ2 were generated, native and N-terminal his-tagged versions, in E. coli; made in house; host or cells: E. coli; added as soluble protein to MLEC
T2 sequence (P61812 303-414): T1 sequence (P61812 303-414 limits assumed)
Method: MLECs were plated at 2,000 cells per well and incubated at 37° C. for 4 hours. Aptamer and TGFβ2 were added at the indicated concentrations for 16 hours at 37° C. Cell proliferation was measured using BrdU incorporation. BrdU assay was performed as recommended by the manufacturer (Roche Diagnostics).
MLEC Assay. The mink lung epithelial cell proliferation assay is performed over two days. On day 1:1) media is aspirated off from Mink Lung Epithelial Cells (MLEC); 2) the MLEC are washed with 10 ml 1×PBS; 3) 3 ml Trypsin is added and Trypsinize for 3 min at 37° C.; 4) quench with 10 ml 0.5% FBS media; 5) spin at 1000 rpm for 3.30 min; 6) aspirate off supernatant; 7) resuspend pellet in 10 ml 0.5% FBS media; 8) Count 10 μl cell suspension; 9) adjust cell density to 80,000 cells/ml; 10) add 50 μl of cells/well to black bottomed 96-well plates (4000 cells/well); pipet up and down during plating process to avoid settling of cells and uneven plating; 11) incubate cells at 37° C. in 5% CO2 for 4 hrs to allow adherence of cells; 12) add 25 μl of aptamer (or media, or other test reagent, such as for example, an antibody), preferably the outer wells are not used for treated cells; 13) add 25 μl of TGFβ2 (typically 25 pg/ml); and 14) incubate cells at 37° C. in 5% CO2 overnight.
On day 2:1) mix 20 μl BrdU with 2 ml 0.5% FBS media; 2) add 10 μl of BrdU mixture/well; 3) incubate cells at 37° C. in 5% CO2 for 3 hrs; 4) remove media and blot plates dry on paper towels; 5) add 200 μl/well FixDenat solution and incubate for 30 min at room temperature (RT); 6) remove FixDenat solution and blot plates dry on paper towels; 7) add 100 μl /well anti-BrdU POD solution and incubate for 90 min at RT; 8) remove anti-BrdU POD solution and blot plates dry on paper towels; 9) wash plates 3× with […] washing solution with 5 min RT incubations and blot plates dry on paper towels; 10) add 100 μl /well substrate solution and incubate for 3 min at RT in dark; and 11) read plates using PSP Luciferace 1 program on TopCount (Packard Bioscience Co., Downers Grove, Ill.).

TGFβ2 [2] = molecular target: T1, TGFβ2; assay: Nitrocellulose-filter partitioning binding of 32P-labeled aptamer to TGFβ-2 protein; design: A synthetic polynucleotide encoding full length human TGFβ2 mature protein was cloned into pRSET E. coli expression vector; made in house
Method: Dissociation constants for the binding of aptamers to purified human or rodent TGFβ-2 protein were determined by nitrocellulose-filter partitioning using ^32P-labeled RNA. In vitro transcribed RNA was treated with calf-intestinal alkaline phophatase (New England Biolabs) to remove 5′-triphosphates, then radio-labeled by incubation with γ-^32P-ATP and T4 polynucleotide kinase (New England Biolabs). Unincorporated label was removed by gel-filtration, and the RNAs were further purified by polyacrylamide gel electrophoresis (PAGE). Purified ^32P-labeled aptamer in water was refolded just prior to use by heating for 3 min at 95° C., followed by a 10 minute room-temperature incubation in binding buffer (50 mM Hepes, pH 7.4, 1 mM MgCl2, 1 mM CaCl2, 3 mM KCl, 140 mM NaCl, 0.1 mg/ml BSA, 0.01 mg/ml tRNA). The binding reactions (100 μL) were initiated by the addition of aptamer (≦0.1 nM) to excess TGFβ-2 protein (0.2-100 nM), followed by 10-30 minute equilibration at room temperature.
Nitrocellulose-filter partitioning was performed on Minifold® I, 96-well Dot-Blot manifolds (Schleicher & Schuell). Protein-bound aptamer and residual free aptamer were captured, respectively, on pre-wetted Protran nitrocellulose (Schleicher & Schuell) and Hybond-P polyvinylidene difluoride (Amersham Biosciences) filters by vacuum aspiration, and quantified by PhosphorImager (Amersham Biosciences). The proportion of protein-bound aptamer at each TGFβ-2 concentration was plotted as the ratio of counts-per-minute on the Protran nitrocellulose filter (CPMNC) to the sum of CPM on the Protran and Hybond-P filters (CPMtotal). Estimates of dissociation constants (KD) were obtained from a fit of the concentration of TGFβ-2 (i.e., [TGFβ-2])-dependent data to a standard binding isotherm: CPMNC/CPMtotal=Cmax/(1+KD/[TGFβ2]total), where Cmax equals the maximum observed value of CPMNC/CPMtotal at saturating [TGFβ-2], likely reflecting the proportion of properly-folded aptamer that is competent to recognize TGFβ-2.

[3] = Pharmacokinetics via subconjunctival administration; type: in vivo, mice; settings: for AUC (0-t) / Cmax / MRT / TLAST / t1/2 / tmax / Vd: subconjunctival, 1 mg/eye bilaterally; for detection in the aqueous humor: after subconjunctival administration
Method: A pharmacokinetic study was performed to determine the pharmacokinetics of ARC81, ARC117 and ARC119, TGFβ2 aptamers having the sequences of SEQ ID NOs:4, 9 and 11, respectively), via subconjunctival administration in mice. These aptamers were formulated at a concentration of 10 mg/ml. Samples were collected at 0, 0.5, 1, 2, 6, 12, 24, 48 and 96 hours post-administration. FIGS. 21A, 21B and 21C show the aqueous humor and/or plasma concentration of each aptamer (in nM) through 50 hours post dose via subconjunctival administration.

AfUAGAGfCAfUfUAfUAGAGfUAfUGfUAfUAGfCfUAfUAfCfUAfU[3T] (AUAGAGCAUUAUAGAGUAUGUAUAGCUAUACUAU; 2'-fluoro at CU, RNA at AG, 3' {3T}, backbone not given here) [CW128.10.F, minimized AMX(71)_C11]
Kd (TGFβ2 [1]): 3.66 nM

5′-dCdAdCdAdGdGdCTdAdCdGdGdCdAdCdGTdAdGdAdGdCdATdCdAdCdCdATdGdATdCdCTdGTdG-3T-3′ (CACAGGCTACGGCACGTAGAGCATCACCATGATCCTGTG; 3' [invdT], sugars by position and backbone not given here; further chemistry not fully specified) [ARC124]
Kd (PDGF AB and BB): 0.1 nM

5′-NH2-GGAGGfUfUAfUfUAfCAGAGfUfCfUGfUAfUAGfCfUGfUAfCfUfCfC-3T-3′ (GGAGGUUAUUACAGAGUCUGUAUAGCUGUACUCC; 2'-fluoro at CU, RNA at AG, 5' {NH2}, 3' {3T}, backbone not given here) [ARC78]
inhibition of the antiproliferative effects of TGFβ2 (human TGFβ2; 50 pg/ml of TGFβ2, BrdU incorporation): inhibit the antiproliferative effects of 50 pg/ml of TGFβ2
Kd (TGFβ2 [2]; 32P-labeled aptamer, nitrocellulose-filter partitioning, fit to Equation 1, read-out: Kd): 4 nM

AAGGAGfUAfUfUAfUAGAGfUAfUGfUAfUAGfCfUAfUAfCfCAfU[3T] (AAGGAGUAUUAUAGAGUAUGUAUAGCUAUACCAU; 2'-fluoro at CU, RNA at AG, 3' {3T}, backbone not given here) [ARC281, minimized S5CR12-15]
Kd (TGFβ2 [1]): 1.42 nM

5′-[PEG30K]-NH2-mGmGmGmGfUfUAfUfUmAfCmAmGmAmGfUfCfUGfUAfUAmGfCfUmGfUmAfCfCfC-3T-3′ (GGGGUUAUUACAGAGUCUGUAUAGCUGUACCC; sugars from the 5' end mmmmffrffmfmmmmfffrfrfrmffmfmfff, 5' {PEG30K}-{NH2}, 3' {3T}, backbone not given here) [ARC119]
AUC (0-t) ([3]; Aq Humour): 133.2 nM·h
Cmax ([3]; Aq Humour): 28.4 nM
MRT ([3]; Aq Humour): 12.80 h
TLAST ([3]; Aq Humour): 48 h
t1/2 ([3]; Aq Humour): 17.52 h
tmax ([3]; Aq Humour): 0.5 h
AUC (0-t) ([3]; PLASMA): 13,380.5 nM · h
Cmax ([3]; PLASMA): 721 nM
MRT ([3]; PLASMA): 17.28 h
TLAST ([3]; PLASMA): 48 h
Vd ([3]; PLASMA): 137 mL
t1/2 ([3]; PLASMA): 6.94 h
tmax ([3]; PLASMA): 12 h
detection in the aqueous humor [3]: detected in the aqueous humor

5′-[PEG20K]-NH2-mGmGmGmGfUfUAfUfUmAfCmAmGmAmGfUfCfUGfUAfUAmGfCfUmGfUmAfCfCfC-3T-3′ (GGGGUUAUUACAGAGUCUGUAUAGCUGUACCC; sugars from the 5' end mmmmffrffmfmmmmfffrfrfrmffmfmfff, 5' {PEG20K}-{NH2}, 3' {3T}, backbone not given here; PEG attached through 5' amine linker) [ARC117]
AUC (0-t) ([3]; Aq Humour): 87.6 nM·h
Cmax ([3]; Aq Humour): 22.9 nM
MRT ([3]; Aq Humour): 3.62 h
TLAST ([3]; Aq Humour): 24 h
t1/2 ([3]; Aq Humour): 4.33 h
tmax ([3]; Aq Humour): 1 h
AUC (0-t) ([3]; PLASMA): 1,122.1 nM · h
Cmax ([3]; PLASMA): 145 nM
MRT ([3]; PLASMA): 9.22 h
TLAST ([3]; PLASMA): 48 h
Vd ([3]; PLASMA): 1760 mL
t1/2 ([3]; PLASMA): 7.40 h
tmax ([3]; PLASMA): 6 h
detection in the aqueous humor [3]: detected in the aqueous humor

AGGGAAfUAfUfUAfUAGAGfUAfUGfUAfUAGfCfUAfUAfCfCAfU[3T] (AGGGAAUAUUAUAGAGUAUGUAUAGCUAUACCAU; 2'-fluoro at CU, RNA at AG, 3' {3T}, backbone not given here) [ARC282, minimized AMX(71)_A8]
Kd (TGFβ2 [1]): 0.62 nM

GAfCAGAGfUAfUfUAfUAGAGfUAfUGfUAfUAGfCfUAfUAfCfUGfU[3T] (GACAGAGUAUUAUAGAGUAUGUAUAGCUAUACUGU; 2'-fluoro at CU, RNA at AG, 3' {3T}, backbone not given here) [ARC284, minimized S5R8-45]
Kd (TGFβ2 [1]): 0.11 nM

5′-mGmGmAmGmGfUfUAfUfUmAfCmAmGmAmGfUfCfUGfUAfUAmGfCfUmGfUmAfCfUfCfc-3T-3′ (GGAGGUUAUUACAGAGUCUGUAUAGCUGUACUCC; sugars from the 5' end mmmmmffrffmfmmmmfffrfrfrmffmfmffff, 3' {3T}, backbone not given here) [ARC79]
IC50 (human TGFβ2; read-out: cell IC50): 10 nM
Kd (TGFβ2 [2]; read-out: KD): 1 nM

AfCAGAGfUAfUfUAfUAGAGfUAfUGfUAfUAGfCfUAfUAfCfUGfUfC[3T] (ACAGAGUAUUAUAGAGUAUGUAUAGCUAUACUGUC; 2'-fluoro at CU, RNA at AG, 3' {3T}, backbone not given here) [ARC283, minimized S5CR8-45]
Kd (TGFβ2 [1]): 1.27 nM

5′-TdAdCTdCdAdGdGdGdCdAdCTdGdCdAdAdGdCdAdATTdGTdGdGTdCdCdCdAdATdGdGdGdCTdGdAdGTdA-3T-3′ (TACTCAGGGCACTGCAAGCAATTGTGGTCCCAATGGGCTGAGTA; 3' [invdT], sugars by position and backbone not given here; further chemistry not fully specified) [ARC125]
Kd (PDGF AB and BB): 0.1 nM

5′-TdGdGdGdAdGdGdGdCdGdCdGTTdCTTdCdGTdGdGTTdAdCTTTTdAdGTdCdCdCdG-3T-3′ (TGGGAGGGCGCGTTCTTCGTGGTTACTTTTAGTCCCG; 3' [invdT], sugars by position and backbone not given here; further chemistry not fully specified) [ARC123]
Kd (PDGF AB and BB): 0.1 nM

From US20040253243A1, “Aptamer therapeutics useful in ocular pharmacotherapy” (priority 2003, published 2004)
